In patent US20230143604A1, “QW DOSING OF GIP RECEPTOR AGONIST PEPTIDE COMPOUNDS AND USES THEREOF” (TAKEDA PHARMACEUTICAL COMPANY LIMITED, priority 2020, published 2023):
Starred links: 1 amine or outer side, 2 acyl side, 3 side chain; linkers in the order of their positions; H or OH if unused. Positions of bridges follow the written chain, without caps; N, C: chain ends. Non-standard residues stand in square brackets, D forms with d. Residues, ends and D or L forms follow the SMILES beside them. Groups on a side chain read outwards from the residue. Chains are numbered I, II in the order given. *: point of attachment. C18 diacid = O=C(O)CCCCCCCCCCCCCCCCC(=O)*; C17 diacid = O=C(O)CCCCCCCCCCCCCCCC(=O)*; γGlu = O=C(O)[C@H](CCC(=O)[*:2])N[*:1]; NMeY = CN[C@@H](Cc1ccc(O)cc1)C(=O)O; AEEA = NCCOCCOCC(=O)O; Aib = CC(C)(N)C(=O)O

Assay: Solubility in phosphate buffer pH 7.4
In short: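 3 mg of peptide treated with 100 μL portions of 200 mM phosphate buffer pH 7.4, sonicating/vortexing up to 1 min, with further buffer added until fully dissolved. Solubility then quantified by HPLC.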

[1] = pH 7.4, aqueous buffer, pH 7.4 Phosphate Buffer - Solubility, 200 mM Phosphate buffer pH 7.4
[2] = pH 7.4, solubility in phosphate buffer at pH 7.4, 200 mM phosphate buffer pH 7.4

## CC[C@H](C)[C@H](NC(=O)[C@H](CO)NC(=O)[C@H](Cc1ccc(O)cc1)NC(=O)[C@H](CC(=O)O)NC(=O)[C@H](CO)NC(=O)[C@@H](NC(=O)[C@H](Cc1ccccc1)NC(=O)[C@@H](NC(=O)CNC(=O)[C@H](CCC(=O)O)NC(=O)C(C)(C)NC(=O)[C@H](Cc1ccc(O)cc1)NC)[C@@H](C)O)[C@@H](C)CC)C(=O)N[C@@H](C)C(=O)N[C@@H](CCCCNC(=O)CNC(=O)CNC(=O)CNC(=O)CNC(=O)CNC(=O)CCCCCCCCCCCCCCCCC(=O)O)C(=O)N[C@@H](CC(=O)O)C(=O)N[C@@H](CCCNC(=N)N)C(=O)NC(C)(C)C(=O)N[C@@H](C)C(=O)N[C@@H](CCC(N)=O)C(=O)NC(C)(C)C(=O)N[C@@H](CC(N)=O)C(=O)N[C@@H](Cc1ccccc1)C(=O)N[C@H](C(=O)N[C@@H](CC(N)=O)C(=O)N[C@@H](Cc1c[nH]c2ccccc12)C(=O)N[C@@H](CC(C)C)C(=O)N[C@@H](CC(C)C)C(=O)N[C@@H](C)C(=O)N[C@@H](CCC(N)=O)C(=O)N[C@@H](CO)C(=O)N1CCC[C@H]1C(=O)N[C@@H](CO)C(=O)N[C@@H](CO)C(=O)NCC(=O)N[C@@H](C)C(=O)N1CCC[C@H]1C(=O)N1CCC[C@H]1C(=O)N1CCC[C@H]1C(=O)N[C@@H](CO)C(N)=O)C(C)C [Compound 273]
[1]
  solubility: ≥ 6 mg/mL

## CC[C@H](C)[C@H](NC(=O)[C@H](CO)NC(=O)[C@H](Cc1ccc(O)cc1)NC(=O)[C@H](CC(=O)O)NC(=O)[C@H](CO)NC(=O)[C@@H](NC(=O)[C@H](Cc1ccccc1)NC(=O)[C@@H](NC(=O)CNC(=O)[C@H](CCC(=O)O)NC(=O)C(C)(C)NC(=O)[C@H](Cc1ccc(O)cc1)NC)[C@@H](C)O)[C@@H](C)CC)C(=O)N[C@@H](C)C(=O)N[C@@H](CC(C)C)C(=O)N[C@@H](CC(=O)O)C(=O)N[C@@H](CCCNC(=N)N)C(=O)NC(C)(C)C(=O)N[C@@H](C)C(=O)N[C@@H](CCC(N)=O)C(=O)NC(C)(C)C(=O)N[C@@H](CCCCNC(=O)COCCOCCNC(=O)COCCOCCNC(=O)CC[C@H](NC(=O)CC[C@H](NC(=O)CCCCCCCCCCCCCCCC(=O)O)C(=O)O)C(=O)O)C(=O)N[C@@H](Cc1ccccc1)C(=O)N[C@H](C(=O)N[C@@H](CC(N)=O)C(=O)N[C@@H](Cc1c[nH]c2ccccc12)C(=O)N[C@@H](CC(C)C)C(=O)N[C@@H](CC(C)C)C(=O)N[C@@H](C)C(=O)N[C@@H](CCC(N)=O)C(=O)N[C@@H](CO)C(=O)N1CCC[C@H]1C(=O)NCC(=O)O)C(C)C [Compound 125] (H-[NMeY][Aib]EGTFISDYSIALDR[Aib]AQ[Aib]K([AEEA-AEEA-γGlu-γGlu-C17 diacid])FVNWLLAQSPG-OH)
pH 7.4
  solubility: ≥ 15 mg/mL
pH 7.4, aqueous buffer
  solubility: ≥ 30 mg/mL

## CC[C@H](C)[C@H](NC(=O)[C@H](CO)NC(=O)[C@H](Cc1ccc(O)cc1)NC(=O)[C@H](CC(=O)O)NC(=O)[C@H](CO)NC(=O)[C@@H](NC(=O)[C@H](Cc1ccccc1)NC(=O)[C@@H](NC(=O)CNC(=O)[C@H](CCC(=O)O)NC(=O)C(C)(C)NC(=O)[C@H](Cc1ccc(O)cc1)NC)[C@@H](C)O)[C@@H](C)CC)C(=O)N[C@@H](C)C(=O)N[C@@H](CC(C)C)C(=O)N[C@@H](CC(=O)O)C(=O)N[C@@H](CCCNC(=N)N)C(=O)NC(C)(C)C(=O)N[C@@H](C)C(=O)N[C@@H](CCC(N)=O)C(=O)NC(C)(C)C(=O)N[C@@H](CC(=O)O)C(=O)N[C@@H](Cc1ccccc1)C(=O)N[C@H](C(=O)N[C@@H](CC(N)=O)C(=O)N[C@@H](Cc1c[nH]c2ccccc12)C(=O)N[C@@H](CC(C)C)C(=O)N[C@@H](CC(C)C)C(=O)N[C@@H](C)C(=O)N[C@@H](CCCCNC(=O)COCCOCCNC(=O)COCCOCCNC(=O)CC[C@H](NC(=O)CC[C@H](NC(=O)CCCCCCCCCCCCCCCCC(=O)O)C(=O)O)C(=O)O)C(=O)N[C@@H](CCCNC(=N)N)C(=O)NCC(=O)O)C(C)C [Compound 56] (H-[NMeY][Aib]EGTFISDYSIALDR[Aib]AQ[Aib]DFVNWLLAK([AEEA-AEEA-γGlu-γGlu-C18 diacid])RG-OH)
pH 7.4
  solubility: ≥ 15 mg/mL
pH 7.4, aqueous buffer
  solubility: ≥ 30 mg/mL

## I: H-[NMeY][Aib]EGTFISDYSIALDR[Aib]AQ[Aib]KFVNWLLAQSPSSGAPPPS-OH / II: {C18 diacid-γGlu}-PAPAPGG (amide I:21-II:C) [Compound 104]
[1]
  solubility: ≥ 60 mg/mL
[2]
  solubility: ≥ 15 mg/mL

## CC[C@H](C)[C@H](NC(=O)[C@H](CO)NC(=O)[C@H](Cc1ccc(O)cc1)NC(=O)[C@H](CC(=O)O)NC(=O)[C@H](CO)NC(=O)[C@@H](NC(=O)[C@H](Cc1ccccc1)NC(=O)[C@@H](NC(=O)CNC(=O)[C@H](CCC(=O)O)NC(=O)C(C)(C)NC(=O)[C@H](Cc1ccc(O)cc1)NC)[C@@H](C)O)[C@@H](C)CC)C(=O)N[C@@H](C)C(=O)N[C@@H](CC(C)C)C(=O)N[C@@H](CC(=O)O)C(=O)N[C@@H](CCCNC(=N)N)C(=O)NC(C)(C)C(=O)N[C@@H](C)C(=O)N[C@@H](CCC(N)=O)C(=O)NC(C)(C)C(=O)N[C@@H](CCCCNC(=O)COCCOCCNC(=O)COCCOCCNC(=O)CC[C@H](NC(=O)CC[C@H](NC(=O)CCCCCCCCCCCCCCCCC(=O)O)C(=O)O)C(=O)O)C(=O)N[C@@H](Cc1ccccc1)C(=O)N[C@H](C(=O)N[C@@H](CC(N)=O)C(=O)N[C@@H](Cc1c[nH]c2ccccc12)C(=O)N[C@@H](CC(C)C)C(=O)N[C@@H](CC(C)C)C(=O)N[C@@H](C)C(=O)N[C@@H](CCC(N)=O)C(=O)N[C@@H](CO)C(=O)N1CCC[C@H]1C(=O)N[C@@H](CO)C(=O)N[C@@H](CO)C(=O)NCC(=O)N[C@@H](C)C(=O)N1CCC[C@H]1C(=O)N1CCC[C@H]1C(=O)N1CCC[C@H]1C(=O)N[C@@H](CO)C(N)=O)C(C)C [Compound 97] (H-[NMeY][Aib]EGTFISDYSIALDR[Aib]AQ[Aib]K([AEEA-AEEA-γGlu-γGlu-C18 diacid])FVNWLLAQSPSSGAPPPS-NH2)
[1]
  solubility: ≥ 60 mg/mL
[2]
  solubility: ≥ 15 mg/mL

## CC[C@H](C)[C@H](NC(=O)[C@H](Cc1ccccc1)NC(=O)[C@@H](NC(=O)CNC(=O)[C@H](CCC(=O)O)NC(=O)C(C)(C)NC(=O)[C@H](Cc1ccc(O)cc1)NC)[C@@H](C)O)C(=O)N[C@@H](CO)C(=O)N[C@@H](CC(=O)O)C(=O)N[C@@H](Cc1ccc(O)cc1)C(=O)N[C@@H](CO)C(=O)N[C@H](C(=O)NC(C)(C)C(=O)N[C@@H](CC(C)C)C(=O)N[C@@H](CC(=O)O)C(=O)N[C@@H](CCCNC(=N)N)C(=O)NC(C)(C)C(=O)N[C@@H](C)C(=O)N[C@@H](CCC(N)=O)C(=O)NC(C)(C)C(=O)N[C@@H](CCCCNC(=O)COCCOCCNC(=O)COCCOCCNC(=O)CC[C@H](NC(=O)CC[C@H](NC(=O)CCCCCCCCCCCCCCCCC(=O)O)C(=O)O)C(=O)O)C(=O)N[C@@H](Cc1ccccc1)C(=O)N[C@H](C(=O)N[C@@H](CC(N)=O)C(=O)N[C@@H](Cc1c[nH]c2ccccc12)C(=O)N[C@@H](CC(C)C)C(=O)N[C@@H](CC(C)C)C(=O)N[C@@H](C)C(=O)N[C@@H](CCC(N)=O)C(=O)N[C@@H](CCCCN)C(=O)NCC(=O)O)C(C)C)[C@@H](C)CC [Compound 66] (H-[NMeY][Aib]EGTFISDYSI[Aib]LDR[Aib]AQ[Aib]K([AEEA-AEEA-γGlu-γGlu-C18 diacid])FVNWLLAQKG-OH)
pH 7.4
  solubility: ≥ 15 mg/mL
pH 7.4, aqueous buffer
  solubility: ≥ 30 mg/mL

## CC[C@H](C)[C@H](NC(=O)[C@H](CO)NC(=O)[C@H](Cc1ccc(O)cc1)NC(=O)[C@H](CC(=O)O)NC(=O)[C@H](CO)NC(=O)[C@@H](NC(=O)[C@H](Cc1ccccc1)NC(=O)[C@@H](NC(=O)CNC(=O)[C@H](CCC(=O)O)NC(=O)C(C)(C)NC(=O)[C@H](Cc1ccc(O)cc1)NC)[C@@H](C)O)[C@@H](C)CC)C(=O)N[C@@H](C)C(=O)N[C@@H](CCCCNC(=O)CNC(=O)CNC(=O)CNC(=O)CNC(=O)CNC(=O)CC[C@H](NC(=O)CCCCCCCCCCCCCCCC(=O)O)C(=O)O)C(=O)N[C@@H](CC(=O)O)C(=O)N[C@@H](CCCNC(=N)N)C(=O)NC(C)(C)C(=O)N[C@@H](C)C(=O)N[C@@H](CCC(N)=O)C(=O)NC(C)(C)C(=O)N[C@@H](CC(=O)O)C(=O)N[C@@H](Cc1ccccc1)C(=O)N[C@H](C(=O)N[C@@H](CC(N)=O)C(=O)N[C@@H](Cc1c[nH]c2ccccc12)C(=O)N[C@@H](CC(C)C)C(=O)N[C@@H](CC(C)C)C(=O)N[C@@H](C)C(=O)N[C@@H](CCC(N)=O)C(=O)N[C@@H](CCCNC(=N)N)C(=O)N1CCC[C@H]1C(=O)N[C@@H](CO)C(=O)N[C@@H](CO)C(=O)NCC(=O)N[C@@H](C)C(=O)N1CCC[C@H]1C(=O)N1CCC[C@H]1C(=O)N1CCC[C@H]1C(=O)N[C@@H](CO)C(N)=O)C(C)C [Compound 22]
[1]
  solubility: ≥ 30 mg/mL
[2]
  solubility: ≥ 15 mg/mL

## CC[C@H](C)[C@H](NC(=O)[C@H](CO)NC(=O)[C@H](Cc1ccc(O)cc1)NC(=O)[C@H](CC(=O)O)NC(=O)[C@H](CO)NC(=O)[C@@H](NC(=O)[C@H](Cc1ccccc1)NC(=O)[C@@H](NC(=O)CNC(=O)[C@H](CCC(=O)O)NC(=O)C(C)(C)NC(=O)[C@H](Cc1ccc(O)cc1)NC)[C@@H](C)O)[C@@H](C)CC)C(=O)N[C@@H](C)C(=O)N[C@@H](CC(C)C)C(=O)N[C@@H](CC(=O)O)C(=O)N[C@@H](CCCNC(=N)N)C(=O)NC(C)(C)C(=O)N[C@@H](Cc1c[nH]cn1)C(=O)N[C@@H](CCC(N)=O)C(=O)NC(C)(C)C(=O)N[C@@H](CC(N)=O)C(=O)N[C@@H](Cc1ccccc1)C(=O)N[C@H](C(=O)N[C@@H](CC(N)=O)C(=O)N[C@@H](Cc1c[nH]c2ccccc12)C(=O)N[C@@H](CC(C)C)C(=O)N[C@@H](CC(C)C)C(=O)N[C@@H](C)C(=O)N[C@@H](CCCCNC(=O)COCCOCCNC(=O)COCCOCCNC(=O)CC[C@H](NC(=O)CC[C@H](NC(=O)CCCCCCCCCCCCCCCC(=O)O)C(=O)O)C(=O)O)C(=O)N[C@@H](CCCNC(=N)N)C(N)=O)C(C)C [Compound 258] (H-[NMeY][Aib]EGTFISDYSIALDR[Aib]HQ[Aib]NFVNWLLAK([AEEA-AEEA-γGlu-γGlu-C17 diacid])R-NH2)
pH 7.4, aqueous buffer
  solubility: ≥ 6 mg/mL
